Values joined by “and” are separate entries in the source; they are usually repeats but may differ in a detail not shown here. Identical values can stand only once.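 Tested at 5 concentrations; 48 h exposure; 96-well plates; endpoints linearly interpolated, else capped at highest concentration. Here, GI50 denotes the concentration required for 50% inhibition of growth. The concentration for full growth arrest is given as TGI.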 Where a SMILES comes first, the peptide text is derived from it. [ ]: non-standard residue; d: D form. Phe(F5) = N[CH](Cc1c(F)c(F)c(F)c(F)c1F)C(=O)O

Some test systems named below: HCT-15 colon; OVCAR-8 ovarian; OVCAR-3 ovarian; SN12C renal; MDA-MB-231 breast; SK-MEL-2 melanoma; SNB-19 CNS; COLO 205 colon; SK-MEL-28 melanoma; MDA-MB-435.
What all share (assay): growth of human tumour cells (NCI), 48 h

As to `CCc1ccc(NCc2cc(OC)c(OC)c(OC)c2)cc1`, the TGI in the test on HCT-15 colon was 42.2 µM and 20.4 µM; with OVCAR-8 ovarian it was 43.6 µM and 48.1 µM; with OVCAR-3 ovarian, 1.32 µM; in the test with SN12C renal it was 38.4 µM and > 68.7 µM; in the test with MDA-MB-231 breast it was > 100 µM; in the test with SK-MEL-2 melanoma it was 23.9 µM and > 54 µM. The TGI is > 100 µM in the test on SNB-19 CNS; 1.3 µM and 1.47 µM with COLO 205 colon; > 75.2 µM and 69.6 µM in the test with SK-MEL-28 melanoma; 45.8 µM and 31.3 µM in the test on MDA-MB-435. Also, the GI50 in the test on OVCAR-8 ovarian is 0.687 µM and 1.45 µM; in the test on OVCAR-3 ovarian it was 0.348 µM; in the test on SN12C renal, 0.578 µM and 1.16 µM; in the test with MDA-MB-231 breast, 1.27 µM; with SK-MEL-2 melanoma it was 0.255 µM and 0.106 µM; in the test with SNB-19 CNS, 1.14 µM. The GI50 in the test on COLO 205 colon is 0.251 µM and 0.333 µM; with SK-MEL-28 melanoma it was 1.27 µM and 0.185 µM; with MDA-MB-435 it was 0.0232 µM and 0.0172 µM.

With `CN(C)CCNC(=O)c1cccn2c(=O)c3cc4ccccc4cc3nc12`, the GI50 in the test on HCT-15 colon is 0.2 µM; in the test with OVCAR-8 ovarian, 0.0577 µM; in the test on OVCAR-3 ovarian it was 0.16 µM; in the test on SN12C renal, 0.144 µM; with MDA-MB-231 breast it was 0.316 µM; with SK-MEL-2 melanoma, 0.203 µM. Besides, the GI50 was 0.185 µM in the test with SNB-19 CNS, 0.0973 µM in the test on COLO 205 colon, 0.424 µM in the test on SK-MEL-28 melanoma and 0.181 µM in the test on MDA-MB-435. Also, the TGI in the test on HCT-15 colon is > 100 µM; in the test on OVCAR-8 ovarian it was > 69.6 µM; with OVCAR-3 ovarian it was 0.573 µM; in the test on SN12C renal, > 100 µM; in the test on MDA-MB-231 breast it was 8.84 µM; in the test on SK-MEL-2 melanoma it was 1.32 µM. The TGI in the test with SNB-19 CNS is 47.7 µM; in the test with COLO 205 colon, 0.246 µM; in the test with SK-MEL-28 melanoma, 2.9 µM; with MDA-MB-435 it was 1.19 µM.

Consider `COC(=O)C(CC(C)C)NC(=O)C(Cc1cnc[nH]1)NC(=O)CNC(=O)C(NC(=O)C(C)NC(=O)C(Cc1c[nH]c2ccccc12)NC(=O)C(CCC(=O)O)NC(=O)C(N)Cc1c(F)c(F)c(F)c(F)c1F)C(C)C` (stereo unspecified) (H-[Phe(F5)]EWAVGHL-OMe; configuration not given here), for which the GI50 with HCT-15 colon, in the test with OVCAR-8 ovarian, in the test on OVCAR-3 ovarian, in the test with SN12C renal, in the test on SK-MEL-2 melanoma and in the test with COLO 205 colon was > 100 µM each time. In addition, the GI50 in the test with SK-MEL-28 melanoma was > 100 µM. Further, the TGI in the test with HCT-15 colon was > 100 µM; with OVCAR-8 ovarian it was > 100 µM; in the test with OVCAR-3 ovarian it was > 100 µM; with SN12C renal, > 100 µM; in the test with MDA-MB-231 breast, > 12.5 µM; in the test with SK-MEL-2 melanoma, > 100 µM. Also, the TGI was > 100 µM with SNB-19 CNS, > 100 µM with COLO 205 colon, > 100 µM with SK-MEL-28 melanoma and > 12.5 µM in the test on MDA-MB-435.

On to `Cn1c(=O)c2[nH]c(/N=N/N3CCN(CCO)CC3)nc2n(C)c1=O`, for which the TGI with HCT-15 colon, in the test with OVCAR-8 ovarian, in the test on OVCAR-3 ovarian, in the test with SN12C renal, with MDA-MB-231 breast and in the test with SK-MEL-2 melanoma was > 100 µM each time. Moreover, the TGI in the test on SNB-19 CNS, with COLO 205 colon, in the test with SK-MEL-28 melanoma and in the test with MDA-MB-435 was > 100 µM each time.

In the case of `COc1cc2c(cc1OC)-c1ccc3cc4c(cc3c1N(CCN1CCCC1)C2)OCO4`, the GI50 in the test with HCT-15 colon was 1.5 µM; in the test with OVCAR-8 ovarian, 0.404 µM; in the test with OVCAR-3 ovarian it was 0.854 µM; with SN12C renal, 0.345 µM; with MDA-MB-231 breast, 1.27 µM; in the test on SK-MEL-2 melanoma, 7.61 µM. The GI50 in the test with SNB-19 CNS was 0.543 µM; in the test with COLO 205 colon, 0.299 µM; in the test on SK-MEL-28 melanoma, 7.09 µM; in the test with MDA-MB-435 it was 1.36 µM. In addition, the TGI is 3.4 µM in the test with HCT-15 colon; 2.06 µM in the test on OVCAR-8 ovarian; 2.23 µM with OVCAR-3 ovarian; 1.43 µM in the test with SN12C renal; 3.3 µM with MDA-MB-231 breast; 20.1 µM in the test on SK-MEL-2 melanoma. Further, the TGI in the test with SNB-19 CNS came out at 1.85 µM; in the test with COLO 205 colon, 1.56 µM; in the test with SK-MEL-28 melanoma, 20.3 µM; in the test with MDA-MB-435 it was 6.13 µM.

For the compound `c1ccc2nc(Cn3c[n+](Cc4ccc5ccccc5n4)c4ccccc43)ccc2c1`, the GI50 in the test on HCT-15 colon is 15.1 µM; with OVCAR-8 ovarian it was 3.13 µM; in the test with OVCAR-3 ovarian, 1.6 µM; in the test on SN12C renal, 2.19 µM; in the test with MDA-MB-231 breast it was 1.59 µM; in the test on SK-MEL-2 melanoma it was 2.61 µM. Besides, the GI50 was 2.22 µM in the test with SNB-19 CNS, 1.37 µM with COLO 205 colon, 2.38 µM in the test on SK-MEL-28 melanoma and 1.63 µM in the test on MDA-MB-435. Moreover, the TGI stood at 32.6 µM in the test with HCT-15 colon; 11.3 µM with OVCAR-8 ovarian; 4.99 µM in the test on OVCAR-3 ovarian; 10.9 µM in the test on SN12C renal; 4.46 µM with MDA-MB-231 breast; 6.87 µM in the test with SK-MEL-2 melanoma. The TGI in the test on SNB-19 CNS came to 10.4 µM; with COLO 205 colon, 3.22 µM; with SK-MEL-28 melanoma, 9.98 µM; in the test with MDA-MB-435, 4.37 µM.

`O=C(O)CS(=O)(=O)C(c1ccccc1)c1ccccc1`: the TGI with HCT-15 colon, in the test on OVCAR-8 ovarian, with OVCAR-3 ovarian, with SN12C renal, in the test on MDA-MB-231 breast and in the test with SK-MEL-2 melanoma was > 100 µM in each case. Further, the TGI with SNB-19 CNS, in the test with COLO 205 colon, in the test on SK-MEL-28 melanoma and with MDA-MB-435 was > 100 µM throughout.

For `C=C(C)[C@@H]1CC[C@]2(C(=O)NCCCN)CC[C@]3(C)[C@H](CC[C@@H]4[C@@]5(C)CC[C@H](O)C(C)(C)[C@@H]5CC[C@]43C)[C@@H]12`, the GI50 with HCT-15 colon is 21.7 µM; with OVCAR-8 ovarian, 27.7 µM; in the test on OVCAR-3 ovarian, 15.7 µM; in the test with SN12C renal, 20.8 µM; in the test with MDA-MB-231 breast it was 21.1 µM; in the test with SK-MEL-2 melanoma, 27.3 µM. In addition, the GI50 was 24.7 µM in the test on SNB-19 CNS, 21 µM in the test with COLO 205 colon, 22.1 µM with SK-MEL-28 melanoma and 28.7 µM in the test with MDA-MB-435. Further, the TGI in the test on HCT-15 colon was > 100 µM; in the test with OVCAR-8 ovarian it was 87.7 µM; in the test on OVCAR-3 ovarian it was 39.5 µM; with SN12C renal, 82.6 µM; in the test with MDA-MB-231 breast, 76.2 µM; in the test on SK-MEL-2 melanoma, 85.8 µM. The TGI with SNB-19 CNS was 84.5 µM; in the test with COLO 205 colon it was > 100 µM; in the test on SK-MEL-28 melanoma, 57.8 µM; in the test with MDA-MB-435, > 100 µM.

For the origin of these results see PubChem BioAssay (NCI).
